Target: T1, human PDE5 (Homo sapiens, UniProt O76074)
T1 construct: from tissue; host or cells: platelets from fresh blood of human donors (lysate, 10,000 g supernatant)
Assay: Inhibition of the type 5 phosphodiesterase (PDE5) activity, modified SPA test with platelet lysate
Format: biochemical
Conditions: PDE5 from human platelet lysate, 0.5 μM cGMP
Experimental: Method for Measuring Inhibition of the Type 5 Phosphodiesterase (PDE5) Activity:
As a source for human PDE5, platelets are used. For that purpose, 150 ml fresh blood from human donors anticoagulated with citrate [final concentration 0.3% (w/v)] is centrifuged at 200 g for 10 min to obtain the so-called platelet-rich-plasma (PRP) as a supernatant. 1/10 volume of ACD solution (85 mM Na3-citrate, 111 mM D-glucose, 71 mM citric acid, pH 4.4) is added to 9/10 volume of PRP. After centrifugation (1,400 g, 10 min) the cell pellet is resuspended in 3 ml homogenization buffer (NaCl 140 mM, KCl 3.8 mM, EGTA (ethylene glycol tetraacetic acid) 1 mM, MgCl2 1 mM, Tris-HCl 20 mM, beta-mercaptoethanol 1 mM, pH 8.2) plus protease-inhibitor mix giving rise to the final concentrations of 0.5 mM Pefablock (Roche), 10 μM Leupeptin, 5 μM Trypsininhibitor, 2 mM Benzamidin and 10 μM Pepstatin A. The suspension is sonified and thereafter centrifuged for 15 min at 10,000 g. The resulting supernatant (platelet lysate) is used for enzymatic testings.
PDE5A1 activity is inhibited by the compounds of the invention in a modified SPA (scintillation proximity assay) test, supplied by Amersham Biosciences (see procedural instructions “phosphodiesterase [3H]cAMP SPA enzyme assay, code TRKQ 7090”), carried out in 96-well microtitre plates (MTP's). The test volume is 100 μl and contains 20 mM Tris buffer (pH 7.4), 0.1 mg of BSA (bovine serum albumin)/ml, 5 mM Mg^2+, 1 μM motapizone, 10 nM PDE2 inhibitor 2-(3,4-dimethoxybenzyl)-7-[(1R,2R)-2-hydroxy-1-(2-phenylethyl)propyl]-5-methylimidazo[5,1-f][1,2,4]triazin-4(3H)-one, 0.5 μM cGMP (cyclic guanosine monophosphate) (including about 50,000 cpm of [3H]cGMP as a tracer), 1 μl of the respective compound dilution in dimethylsulfoxide (DMSO) and sufficient PDE5-containing platelet lysat (10,000×g supernatant, see above) to ensure that 10-20 wt % of the cGMP is converted under the said experimental conditions. […] After a preincubation of 5 min at 37° C., the reaction is started by adding the substrate (cGMP) and the assay is incubated for a further 15 min; after that, it is stopped by adding SPA beads (50 μl). In accordance with the manufacturer's instructions, the SPA beads had previously been resuspended in water, but are then diluted 1:3 (v/v) in water; the diluted solution also contains 3 mM […] (IBMX) to ensure a complete PDE activity stop. After the beads have been sedimented (>30 min), the MTP's are analyzed in commercially available luminescence detection de-vices. The corresponding IC50 values of the compounds for the inhibition of PDE activity are deter-mined from the concentration-effect curves by means of non-linear regression.

Row | IC50 | Compound
1 | 1780 pM | COCC(=O)N[C@H]1CC[C@@H](NC(=O)c2c[nH]c3c(-c4cc(OC)ccc4OCC4CC4)ncnc23)CC1 [Example 69, cis-4-(2-Cyclopropylmethoxy-5-methoxy-phenyl)-5H-pyrrolo[3,2-d]pyrimidine-7-carboxylic acid [4-(2-methoxy-acetylamino)-cyclohexyl]-amide]
2 | 1820 pM | COCC(=O)N1CC[C@H](NC(=O)c2c[nH]c3c(-c4c(OCC5CC5)ccc5c4OCO5)ncnc23)C1 [Example 21, 4-(5-Cyclopropylmethoxy-benzo[1,3]dioxol-4-yl)-5H-pyrrolo[3,2-d]pyrimidine-7-carboxylic acid [(S)-1-(2-methoxy-ethanoyl)-pyrrolidin-3-yl]amide]
3 | 186 pM | C[C@H](O)C(=O)N[C@H]1CC[C@H](NC(=O)c2c[nH]c3c(-c4c(OCC5CC5)ccc5c4OCO5)ncnc23)CC1 [Example 173]
4 | 14500 pM | COCCOc1cc(OC)ccc1-c1ncnc2c(C(=O)N[C@H]3CC[C@@H](NC(C)=O)CC3)c[nH]c12 [Example 152, cis-4-[4-Methoxy-2-(2-methoxy-ethoxy)-phenyl]-5H-pyrrolo[3,2-d]pyrimidine-7-carboxylic acid (4-acetylamino-cyclohexyl)-amide]
5 | 372 pM | COc1ccc(-c2ncnc3c(C(=O)N[C@H]4CC[C@@H](NC(C)=O)CC4)c[nH]c23)c(OCC2CC2)c1 [Example 55, cis-4-(2-Cyclopropylmethoxy-4-methoxy-phenyl)-5H-pyrrolo[3,2-d]pyrimidine-7-carboxylic acid (4-acetylamino-cyclohexyl)-amide]
6 | 355 pM | COc1cc(-c2ncnc3c(C(=O)N[C@@H]4CCN(C(=O)[C@H](C)O)C4)c[nH]c23)c(OCC2CC2)cc1F [Example 232, 4-(2-Cyclopropylmethoxy-4-fluoro-5-methoxy-phenyl)-5H-pyrrolo[3,2-d]pyrimidine-7-carboxylic acid [(R)-1-((S)-2-hydroxy-propionyl)-pyrrolidin-3-yl]amide]
7 | 851 pM | C[C@H](O)C(=O)N1CCC[C@H](NC(=O)c2c[nH]c3c(-c4c(OCC5CC5)ccc5c4OCO5)ncnc23)C1 [Example 197, 4-(5-Cyclopropylmethoxy-benzo[1,3]dioxol-4-yl)-5H-pyrrolo[3,2-d]pyrimidine-7-carboxylic acid [(S)-1-((S)-2-hydroxy-propanoyl)piperidin-3-yl]-amide]
8 | 9550 pM | COCCOc1cc(OC)ccc1-c1ncnc2c(C(=O)N[C@H]3CC[C@H](NC(C)=O)CC3)c[nH]c12 [Example 155, trans-4-[4-Methoxy-2-(2-methoxy-ethoxy)-phenyl]-5H-pyrrolo[3,2-d]pyrimidine-7-carboxylic acid (4-acetylamino-cyclohexyl)-amide]
9 | 759 pM | COc1cc(OCC2CC2)c(-c2ncnc3c(C(=O)N[C@H]4CC[C@H](NC(=O)CO)CC4)c[nH]c23)cc1F [Example 233, trans-4-(2-Cyclopropylmethoxy-5-fluoro-4-methoxy-phenyl)-5H-pyrrolo[3,2-d]pyrimidine-7-carboxylic acid [4-(2-hydroxy-acetylamino)-cyclohexyl]-amide]
10 | 692 pM | COCC(=O)N1CCC(NC(=O)c2c[nH]c3c(-c4cc(F)c(OC)cc4OCC4CC4)ncnc23)CC1 [Example 109, 4-(2-Cyclopropylmethoxy-5-fluoro-4-methoxy-phenyl)-5H-pyrrolo[3,2-d]pyrimidine-7-carboxylic acid [1-(2-methoxy-ethanoyl)-piperidin-4-yl]amide]
11 | 148 pM | CCCOc1ccc2c(c1-c1ncnc3c(C(=O)NC4CCN(C(=O)OCC)CC4)c[nH]c13)OCO2 [Example 140, 4-{[4-(5-Propoxy-benzo[1,3]dioxol-4-yl)-5H-pyrrolo[3,2-d]pyrimidine-7-carbonyl]-amino}-piperidine-1-carboxylic acid ethyl ester]
12 | 302 pM | O=C(NC1CCN(C(=O)CO)CC1)c1c[nH]c2c(-c3c(OCC4CC4)ccc4c3OCO4)ncnc12 [Example 171, 4-(5-Cyclopropylmethoxy-benzo[1,3]dioxol-4-yl)-5H-pyrrolo[3,2-d]pyrimidine-7-carboxylic acid [1-(2-hydroxy-ethanoyl)-piperidin-4-yl]amide]
13 | 550 pM | COc1ccc(-c2ncnc3c(C(=O)N[C@H]4CC[C@H](C(=O)NC5CC5)CC4)c[nH]c23)c(OCC2CC2)c1 [Example 271, trans-4-(2-Cyclopropylmethoxy-4-methoxy-phenyl)-5H-pyrrolo[3,2-d]pyrimidine-7-carboxylic acid (4-cyclopropylcarbamoyl-cyclohexyl)-amide]
14 | 2290 pM | CC(=O)N[C@H]1CC[C@H](NC(=O)c2c[nH]c3c(-c4ccc(F)cc4OCC4CC4)ncnc23)CC1 [Example 78, trans-4-(2-Cyclopropylmethoxy-4-fluoro-phenyl)-5H-pyrrolo[3,2-d]pyrimidine-7-carboxylic acid (4-acetylamino-cyclohexyl)-amide]
15 | 398 pM | COCC(=O)N1CCC(NC(=O)c2c[nH]c3c(-c4c(OCC5CC5)ccc5c4OCO5)ncnc23)CC1 [Example 3, 4-(5-Cyclopropylmethoxy-benzo[1,3]dioxol-4-yl)-5H-pyrrolo[3,2-d]pyrimidine-7-carboxylic acid [1-(2-methoxy-acetyl)piperidin-4-yl]-amide]
16 | 166 pM | O=C(N[C@H]1CC[C@H](C(=O)NC2CC2)CC1)c1c[nH]c2c(-c3c(OCC4CCC4)ccc4c3OCO4)ncnc12 [Example 276, trans-4-(5-Cyclobutylmethoxy-benzo[1,3]dioxol-4-yl)-5H-pyrrolo[3,2-d]pyrimidine-7-carboxylic acid (4-cyclopropylcarbamoyl-cyclohexyl)-amide]
17 | 85.1 pM | CCOC(=O)N[C@H]1CC[C@H](NC(=O)c2c[nH]c3c(-c4c(OCC5CC5)ccc5c4OCO5)ncnc23)CC1 [Example 6, trans-[4-({1-[4-(5-Cyclopropylmethoxy-benzo[1,3]dioxol-4-yl)-5H-pyrrolo[3,2-d]pyrimidin-7-yl]-methanoyl}-amino)-cyclohexyl]-carbamic acid ethyl ester]
18 | 1510 pM | CCCOc1ccc2c(c1-c1ncnc3c(C(=O)N[C@@H]4CCN(C(=O)COC)C4)c[nH]c13)OCO2 [Example 143, 4-(5-Propoxy-benzo[1,3]dioxol-4-yl)-5H-pyrrolo[3,2-d]pyrimidine-7-carboxylic acid [(R)-1-(2-methoxy-acetyl)-pyrrolidin-3-yl]amide]
19 | 219 pM | COCC(=O)N1CCC(NC(=O)c2c[nH]c3c(-c4cc(OC)c(F)cc4OCC4CC4)ncnc23)CC1 [Example 98, 4-(2-Cyclopropylmethoxy-4-fluoro-5-methoxy-phenyl)-5H-pyrrolo[3,2-d]pyrimidine-7-carboxylic acid [1-(2-methoxy-ethanoyl)-piperidin-4-yl]-amide]
20 | 2140 pM | O=C(NC1CCN(C(=O)C2CC2)CC1)c1c[nH]c2c(-c3ccccc3OCC3CC3)ncnc12 [Example 96, 4-(2-Cyclopropylmethoxy-phenyl)-5H-pyrrolo[3,2-d]pyrimidine-7-carboxylic acid (1-cyclopropanecarbonyl-piperidin-4-yl)-amide]
21 | 3630 pM | Cc1ccc(OCC2CC2)c(-c2ncnc3c(C(=O)NC4CCN(C(=O)CO)CC4)c[nH]c23)c1 [Example 246, 4-(2-Cyclopropylmethoxy-5-methyl-phenyl)-5H-pyrrolo[3,2-d]pyrimidine-7-carboxylic acid [1-(2-hydroxy-acetyl)piperidin-4-yl]-amide]
22 | 3980 pM | COCC(=O)N1CCC(NC(=O)c2c[nH]c3c(-c4cc(F)ccc4OCC4CC4)ncnc23)CC1 [Example 86, 4-(2-Cyclopropylmethoxy-5-fluoro-phenyl)-5H-pyrrolo[3,2-d]pyrimidine-7-carboxylic acid [1-(2-methoxy-acetyl)piperidin-4-yl]-amide]

Row | Compound | IC50
23 | CCCCOc1ccc2c(c1-c1ncnc3c(C(=O)NC4CCCN(C(=O)OCC)C4)c[nH]c13)OCO2 (centres unmarked) [Example 148, 3-{[4-(5-Butoxy-benzo[1,3]dioxol-4-yl)-5H-pyrrolo[3,2-d]pyrimidine-7-carbonyl]-amino}-piperidine-1-carboxylic acid ethyl ester] | 407 pM

Reference: US8445501B2, “Substituted 7-carboxamido-pyrrolo[3,2-d]pyrimidines” (Takeda GmbH, priority 2008, dated 2013)
